Assay results published in PMC6522510 (Nature Communications, 2019).

Key:
Parameters in all cases: species or system AML cell lines (8); Primary HTS, single concentration about 10 uM, Cell Titer Glo viability; log10 luminescence, per cent inhibition relative to cycloheximide control
Settings in all cases: 72 h, relative to cycloheximide control, log10 luminescence; inhibitor
MOLM-13 = tested on: MOLM-13
M07e = tested on: M07e
ML-2 = tested on: ML-2
CMS = tested on: CMS
U937 = tested on: U937
CMK = tested on: CMK
CHRF288-11 = tested on: CHRF288-11
MV4-11 = tested on: MV4-11

| Structure (SMILES) | MOLM-13 %inh (MOLM-13) [%] | M07e %inh (M07e) [%] | ML-2 %inh (ML-2) [%] | CMS %inh (CMS) [%] | U937 %inh (U937) [%] | CMK %inh (CMK) [%] | CHRF288-11 %inh (CHRF288-11) [%] | MV4-11 %inh (MV4-11) [%] |
| --- | --- | --- | --- | --- | --- | --- | --- | --- |
| O=C1NC(=N[C@@H](CO)c2ccccc2)S/C1=C\c1ccc2ncccc2c1 [SJ000581004-1] | 24.69 | 12.47 | 3.929 | 4.436 | 9.087 | 55.48 | 15.94 | 41.34 |
| O=C1NC(=N[C@H](CO)c2ccccc2)S/C1=C\c1ccc2ncccc2c1 [SJ000581004-2] | 7.874 | 10.69 | 2.475 | 2.583 | 9.058 | 28.24 | 1.03 | 3.175 |
| Nc1c(C(=O)c2cccc(C#CCO)c2)cnn1-c1ccc(F)cc1 [SJ000581005-1] | -0.3055 | 1.15 | -1.489 | 3.189 | -1.339 | -3.113 | -2.428 | -2.436 |
| O=C1NC(=NCc2ccccn2)S/C1=C\c1ccc2ncccc2c1 [SJ000581006-1] | 6.642 | 3.262 | -0.04041 | -0.1401 | 2.876 | 2.326 | -1.509 | 1.986 |
| Cn1cc(C2=C(c3c4n(c5ccccc35)CCCCC4)C(=O)NC2=O)c2ccccc21 [SJ000581007-1] | -0.4157 | 0.1866 | -3.106 | -2.233 | -0.6469 | 2.966 | -2.847 | -1.05 |
| Cn1cc(C2=C(c3cccc(NCC(O)CO)c3)C(=O)NC2=O)c2cc(Cl)ccc21 (stereo not drawn) [SJ000581009-1] | 37.38 | 19.12 | 10.75 | 98.55 | 8.397 | 105.4 | 28.92 | 70.02 |
| Cn1cc(C2=C(c3cn(CCCCCO)c4ccccc34)C(=O)NC2=O)c2ccccc21 [SJ000581010-1] | 6.709 | 1.341 | -1.548 | 1.022 | -0.3264 | 27.55 | 17.96 | -1.111 |
| Cn1cc(C2=C(c3cn(CCCN=C(N)N)c4ccccc34)C(=O)NC2=O)c2ccccc21 [SJ000581011-1] | 3.172 | -0.6273 | 1.035 | -3.925 | -0.6406 | -5.09 | 6.037 | 6.352 |
| Cc1cc(C)c2c(n1)sc1c(N)ncnc12 [SJ000581012-1] | -1.383 | -1.463 | -0.0326 | 2.019 | 3.328 | -2.956 | 1.655 | -4.498 |
| COc1cc[nH]c1/C=C1\C(=O)Nc2ccc(F)c(C#CC3(O)CCNCC3)c21 [SJ000581013-1] | 105.4 | 109.1 | 57.56 | 92.23 | 80.6 | 93.46 | 71.86 | 81.96 |
| COc1cccc(C(=O)c2sc(Nc3ccc(N4CCN(C(C)C)CC4)cc3)nc2N)c1 [SJ000581014-1] | 103.8 | 8.945 | 8.496 | 7.49 | 25.4 | 33.11 | 15.68 | 15.32 |
| O=C1NC(=NCCc2cccs2)S/C1=C\c1ccc2ncccc2c1 [SJ000581015-1] | 1.226 | 0.2412 | 1.872 | 2.886 | 4.783 | 2.413 | -3.354 | 1.469 |
| Cn1cc(C2=C(N3CCOCC3)C(=O)NC2=O)c2ccccc21 [SJ000581016-1] | -0.4077 | -1.546 | 1.058 | 2.558 | -0.03629 | -3.99 | -0.4853 | -3.16 |
| Cn1cc(C2=C(c3c4n(c5ccccc35)CCN(C(N)=S)C4)C(=O)NC2=O)c2ccccc21 [SJ000581017-1] | 83.86 | 14.07 | 14.21 | 66.21 | 15.09 | 110.3 | 61.39 | 52.04 |
| Nc1c(C(=O)c2ccc(CCCN3CCOCC3)cc2)cnn1-c1ccc(F)cc1 [SJ000581018-1] | 3.662 | 0.8427 | 1.663 | 2.2 | 1.825 | 0.7543 | 6.032 | 0.41 |
| O=C1NC(=N[C@@H](CO)Cc2ccccc2)S/C1=C\c1ccc2ncccc2c1 [SJ000581019-1] | 62.37 | 15.21 | 8.345 | 8.828 | 18.33 | 99.34 | 42.52 | 35.98 |
| O=C1NC(=N[C@H](CO)Cc2ccccc2)S/C1=C\c1ccc2ncccc2c1 [SJ000581019-2] | 1.796 | 7.526 | 1.703 | 2.2 | 7.541 | 5.29 | 7.52 | 1.969 |
| Nc1c(C(=O)c2cccc(OC[C@H](O)CO)c2)cnn1-c1ccc(F)cc1 [SJ000581020-1] | 0.004587 | 2.292 | 2.034 | 0.9092 | 0.3347 | 3.324 | 2.337 | 0.9707 |
| COc1ccc(F)cc1C(=O)c1cnc(NC2CCN(S(C)(=O)=O)CC2)nc1N [SJ000581021-1] | 27.57 | 26.32 | 16.42 | 25.29 | 26.91 | 28.45 | 14.05 | 23.41 |
| Cn1cc(C2=C(c3c4n(c5ccccc35)CCC(CN)CC4)C(=O)NC2=O)c2ccccc21 (stereo not drawn) [SJ000581022-1] | 2.979 | 8.854 | 3.751 | 0.653 | 3.425 | 2.783 | 0.7803 | 5.378 |
| CS(=O)(=O)CCn1c(=O)c(Oc2ccc(F)cc2F)cc2cnc(NC3CCOCC3)nc21 [SJ000581023-1] | -0.00779 | 1.483 | 0.4592 | -0.4321 | -0.5257 | 0.4611 | 8.185 | 1.997 |
| Cn1c(=O)c(Oc2ccc(F)cc2F)cc2cnc(NC(CO)CO)nc21 [SJ000581024-1] | 0.3413 | 1.393 | 0.9662 | -1.976 | 3.277 | -1.172 | -0.0002567 | 1.357 |
| CC(=O)N[C@@H](Cc1ccc(OP(=O)(O)O)cc1)C(=O)N[C@H]1CCC(=O)N2CCC[C@@H](C(=O)NCc3ccccc3)N2C1=O [SJ000581025-1] | 0.5747 | -1.273 | 0.2617 | 0.9205 | 0.2421 | -3.468 | 3.231 | -4.371 |
| CNCC1CCn2c(c(C3=C(c4cn(C)c5ccccc45)C(=O)NC3=O)c3ccccc32)C1 (stereo not drawn) [SJ000581026-1] | 5.409 | 4.053 | 5.596 | 2.453 | 3.941 | 19.67 | 5.735 | 3.218 |
